Measured values taken from patent US20200354348A1, “SEMISYNTHETIC AURONES AND METHODS OF USE THEREOF” (University of Kentucky Research Foundation, priority 2018, published 2020).
“Also recorded” adds a separate entry of the source.

What was measured:
MALME-3M = experiment: NCI60 screening; format: cell-based; details: Homo sapiens, Melanoma
Nalm-16 = experiment: IC50 in leukemia cell lines; format: cell-based; details: NALM16; Nalm-16, B-ALL
Myc-induced T-ALL = experiment: Anti-leukemia activity in the zebrafish model; format: in vivo
Method: Rag2:Myc-GFP zebrafish at 21 days of age were treated with DMSO, Aurone 4a, or 4r in 1.5 mL fish system water in 12-well plates. Zebrafish were treated with compound for 2 days, removed from drug for 1 day, and treated for two more days in fresh compound. Animals were imaged at the start and end of treatment using a fluorescence-equipped dissecting microscope at 350 ms exposure. The GFP image was overlaid onto the bright-field image of each animal in Photoshop, and the percent change in leukemia burden was calculated by normalizing the GFP+ area to the total area of the animal in ImageJ.

[1] = tested on: PC-3, LS174T, A549, MCF-7, Ovcar-8 and NCI/ADR-RES; experiment: Inhibition of various cancer cell lines, five-day treatment (FIG. 2A); format: cell-based; details: 120 h
Method: The inhibitory effects of aurones 4a and 4r were determined on various cancer cell lines including prostate cancer PC-3, colorectal cancer LS174T, lung cancer A549, breast cancer MCF-7, and ovarian cancer Ovcar-8 and NCI/ADR-RES (Tables 1-3, FIG. 2A).
Cell Culture. LS174T (colon cancer cells), PC-3 (prostate cancer cells), MCF-7 (beast) and A549 (lung) were cultured in the medium recommended by American Type Culture Collection at 37° C. with 5% CO2 atmosphere in a water jacketed incubator. Ovcar-8 and NCI/ADR-RES are gifts from Dr. Markos Leggas. Alpha-tubulin antibodies, TRITC-conjugated anti-rabbit antibody.
Proliferation inhibition assay. Cancer cells were seeded into 24-well plates at a density of 20,000 cells per well in 1 mL of culture medium and cultured overnight at 37° C. Compounds and the vehicle control DMSO were added to the cells. […] Then the cells resuspended in pbs were counted by Vi-CELL XR 2.03 (Beckman Coulter, Inc. USA). The ratio R of the number of viable cells in the compound treatment group to the number of viable cells in DMSO treatment group was taken as relative growth, and the percentage growth inhibition was calculated as: (1−R)*100. For initial testing, compounds were added to the cells at a final concentration 10 μM. Active compounds at 10 μM would be tested at lower concentrations.

CCRF-CEM = experiment: IC50 in leukemia cell lines; format: cell-based; details: Homo sapiens, T-ALL
MOLT-4 = experiment: IC50 in leukemia cell lines; format: cell-based; details: Homo sapiens; Molt-4, T-ALL
DND41 = experiment: IC50 in leukemia cell lines; format: cell-based; details: DND41, T-ALL
tubulin = experiment: In vitro tubulin polymerization assay; format: biochemical; details: 5 μM
Method: In vitro tubulin polymerization assay. The in vitro tubulin polymerization assay was performed by referring tubulin manufacturer's protocol. Briefly, tubulin powder (Cytoskeleton Inc. USA) was dissolved in cold buffer [100 mM PIPES (pH 6.9), 2 mM MgCl2, 1 mM GTP, and 5% glycerol] on ice. Then aliquots (80 μL, 3.75 μg/μL) of the obtained tubulin solution were divided into the wells of a 96-well half-area plate (Corning, USA). After adding DMSO or testing compounds, the plate was mounted to a Spectra MR™ microplate spectrophotometer equipped with a thermal controller allowing to adjust the temperature to 37° C. (DYNEX Technologies Limited, USA). Readings at 350 nm were recorded every 30 s for 1 hour.

NCI/ADR-RES = experiment: NCI60 screening; format: cell-based
HBP-ALL = experiment: IC50 in leukemia cell lines; format: cell-based; details: T-ALL
PC-3 and LS174T cells = experiment: Proliferation inhibition, Table 2; format: cell-based; details: Homo sapiens, read-out: inhibition at 300 nM concentrations
Method: Proliferation inhibition assay. Cancer cells were seeded into 24-well plates at a density of 20,000 cells per well in 1 mL of culture medium and cultured overnight at 37° C. Compounds and the vehicle control DMSO were added to the cells. After 6 days, medium was removed and 100 μL of trypsin was added. Then the cells resuspended in pbs were counted by Vi-CELL XR 2.03 (Beckman Coulter, Inc. USA). The ratio R of the number of viable cells in the compound treatment group to the number of viable cells in DMSO treatment group was taken as relative growth, and the percentage growth inhibition was calculated as: (1−R)*100. For initial testing, compounds were added to the cells at a final concentration 10 μM. Active compounds at 10 μM would be tested at lower concentrations.

Cdc2 (CDK1) = Cdc2 (CDK1) phosphorylation (FIG. 7B); format: cell-based

**Q.** For `CCn1cc(/C=C2\Oc3cc(OCC#N)ccc3C2=O)c2cc(OC)ccc21` [Aurone 4a, (Z)-2-((2-((1-Ethyl-5-methoxy-1H-indol-3-yl)methylene)-3-oxo-2,3-dihydrobenzofuran-6-yl)oxy)acetonitrile], which GI50 (MALME-3M) is on record?
**A.** The GI50 was > 100 µM.

**Q.** And the IC50 (Nalm-16)?
**A.** The IC50 was 0.272 µM.

**Q.** What about the “gross toxicity on zebrafish” value (Myc-induced T-ALL) of the same molecule?
**A.** The value was “no gross toxicity was observed”.

**Q.** And the “inhibition of Myc-induced T-ALL” value (Myc-induced T-ALL; 5 days)?
**A.** Its value is “blocked the progress of T-ALL; also recorded: significant inhibition of Myc-induced T-ALL”.

**Q.** And the “decrease in leukemia burden” value (Myc-induced T-ALL; percent change over treatment, p=0.0011 vs DMSO)?
**A.** Its value is 45.58%.

**Q.** What about the IC50 [1] of the same molecule?
**A.** Its IC50 is 0.05 to 0.3 µM.

**Q.** What about the IC50 (CCRF-CEM) of the same molecule?
**A.** Its IC50 is 0.244 µM.

**Q.** What about the IC50 (MOLT-4) of the same molecule?
**A.** Its IC50 is 0.241 µM.

**Q.** And the IC50 (DND41)?
**A.** Its IC50 is 0.21 µM.

**Q.** And the “tubulin polymerization in vitro” value (tubulin)?
**A.** Its value is “inhibits tubulin polymerization”.

**Q.** What about the “cytotoxicity against multidrug-resistant cell line” value (NCI/ADR-RES; NCI/ADR-RES) of the same molecule?
**A.** Its value is “potent cytotoxicity”.

**Q.** What about the “substrate of P-glycoprotein” value (NCI/ADR-RES; inferred from NCI/ADR-RES cells expressing P-glycoprotein) of the same molecule?
**A.** The value was “not likely a substrate of P-glycoprotein”.

**Q.** And the IC50 (HBP-ALL)?
**A.** The IC50 was 0.094 µM.

**Q.** And the inhibition at 0.3 µM (PC-3 and LS174T cells)?
**A.** The inhibition at 0.3 µM was > 90%.

**Q.** And the “Cdc2 (CDK1) phosphorylation at tyrosine 15” value (Cdc2 (CDK1))?
**A.** Its value is “decreasing phosphorylation at tyrosine 15”.
